Measured values as given in US7741294B1, “Non-standard nucleobases implementing the isocytidine and isoguanosine hydrogen bonding patterns” (priority 2005, dated 2010).
Like-named read-outs stand apart in the source and are kept apart here.

Experiments:
[1] = keto:enol tautomeric equilibrium from UV spectra in dioxane:water mixtures, extrapolated to pure water; format: physicochemical; conditions: log fraction of enol vs ET(30), extrapolated to ET(30) of pure water (63.1)
Text: The procedure of Voegel et al. [Voegel, J. J., von Krosigk, U., Benner, S. A. (1993) J. Org. Chem., 58, 7542-7547.] was then used to estimate a value of the keto:enol tautomers in pure water for dC7 isoG. This procedure exploits the fact that in nonpolar solvents, the UV spectra for both disoG and C7 isoG shift from their form in pure water (which resembles the N-methylated derivatives) to a form that resembles the UV spectra of the O-methylated derivatives. This is interpreted as evidence that the tautomeric equilibrium shifts from one favoring the keto tautomer in pure water to one favoring the enol tautomer in pure dioxane.
To obtain quantitative data, the ratio of the extinction coefficients at two wavelengths (λ=296 and 255 nm for disoG and λ=305 and 254 nm for dC7 isoG), chosen to maximize the difference between the keto and enol forms, was chosen as a metric for the tautomeric equilibrium constant in dioxane:water mixtures in varying proportions. This was plotted against the Dimroth ET(30) value, which provides a measure of the local dielectric constant [Kosower, E. M. (1958) J. Am. Chem. Soc., 80, 3253-3260] [Dimroth, v. K., Reichardt, C., Siepmann, T., Bohlmann, F. (1963) Liebigs Ann. Chem., 661, 1-37.] [Reichardt, C., Harbusch-Goernert, E. (1983) Liebigs Ann. Chem., 721-743] [Gordon, A., Katritzky, A. R. (1968) Tetrahedron Lett., 23, 2767-2770.] […]

[2] = pKa by spectrophotometric titration; format: physicochemical; conditions: pH 2.8 to 13.7, 240-350 nm
Description: The pKa of the nucleoside analog was determined by spectrophotometric titration (pH 2.8 to 13.7) [Kazimierczuk, Z., Shugar, D. (1974) Acta Biochim. Pol., 21, 455-463.1 at 240-350 nm to give values for pK1 and pK2 as 4.3 (±0.1) and 9.9 (±0.2), respectively.

[3] = comparison value for the natural nucleoside; cited from earlier work

KTAUT (=[keto]/[enol]) [1]	pK1 [2]	pK2 [2]	SMILES	KTAUT (=[keto]/[enol]) [3]
≈ 10^3	4.3 (±0.1)	9.9 (±0.2)	Nc1[nH]c(=O)nc2c1ccn2[C@H]1C[C@H](O)[C@@H](CO)O1 [dC7 isoG, 2′-deoxy-7-deaza-isoguanosine]	–
–	–	–	Nc1nc2c(ncn2[C@@H]2O[C@H](CO)[C@@H](O)[C@H]2O)c(=O)[nH]1 [guanosine]	10^4-10^5
